Results as given in patent publication US6372783B1, “Enantiomeric compounds for treatment of cardiac arrhythmias and methods of use” (Aryx Therapeutics, priority 1999, dated 2002).

Columns and labels:
[1] = tested on: Male Sprague-Dawley rats; assay: Anti-arrhythmic activity in anesthetized rats (benzene/adrenaline challenge; VPB, heart rate, EKG intervals); assay type: in vivo, rat; settings: for protection against adrenaline-induced tachyarrhythmia / tachycardia (heart rate): drug administered time 0 to 120 minutes; for PR interval / QRS interval / QT interval / Heart rate (beats/minute) / Inhibition of tachycardia / Number of VPB / Inhibition of VPB: isolated enantiomer as compared to respective racemate; for PR interval / QRS interval / QT interval: EKG; for Heart rate (beats/minute) / Inhibition of tachycardia: adrenaline injection; for Number of VPB / Inhibition of VPB: benzene/adrenaline challenge; for Inhibition of VPB: 4 mg/kg i.v. then 12 mg/kg/h for 2 hours; for VPB-inhibiting activity at the end of the washout period: time 180 min; for inhibition of the formation of ventricular premature beats (VPB) during drug administration: whole period of drug administration (time 0 to 120 min)
Procedure: Anti-arrhythmic Activity in Anesthetized Rats.
Male Sprague-Dawley rats with body weights of 410±30 g (Harlan Sprague Dawley Inc., Indianapolis, Ind.), were anesthetized with sodium pentobarbital (50 mg/kg i.p.—Butler Co., Columbus, Ohio). The skin from the neck area was removed and the jugular veins on both sides were cleared of connective tissue. Both jugular veins and the left carotid artery were isolated, and the latter tied up cranially with a surgical silk (ETHICON 4-0, Ethicon Inc., Australia). A plastic catheter ([…] 19 ga, Vecton Dickinson, Sandy, Utah), filled with a solution containing 10% sodium heparin (Elkins-Sinn Inc., Cherry Hill, N.J.) in normal saline (100 U/ml sodium heparin), was introduced into the artery and fixed with surgical silk.
The catheter was connected to a pressure transducer (OHMEDA P23-XL, Ohmeda Medical Devices Division Inc., Madison, Wis.), filled with the same heparinized 0.9% NaCl solution, to register beat-to-beat arterial pressure. Needle electrodes were inserted s.c., and together with the pressure transducer, were joined to a GOULD TA 2000 recorder. Leads II, aVF and intraarterial blood pressure were monitored simultaneously throughout the experiments and recorded at certain intervals at 50 and 200 mm/sec paper speed.
The surgery was completed with an incision on the trachea where a short plastic tubing was placed and the animal was connected to a rodent-model ventilator (HARVARD Model 683, Harvard Apparatus, Inc., Holliston, Mass.). The animals were ventilated in a controlled way, depending on their spontaneous breathing frequency (55-75/min).
Drug administrations were carried out through i.v. catheters (TERUMO 24 GA*¾″, Terumo Medical Corp., Elkton, Md.) inserted into both jugular veins. The left side was used for drug infusions by means of a syringe pump (SAGE INSTRUMENTS, Model 341B, Orion Res. Inc., Boston, Mass.), and the right side was used for adrenaline injections. The experiments were started after at least 15 minutes of stabilization. Benzene/adrenaline challenges were performed as follows: the respirator inlet was connected to a 50-ml bubbler half-full with benzene (Fisher Scientific, Fair Lawn, N.J.) so that the inspired air was saturated with benzene vapor. The animal was ventilated with benzene vapor for two minutes. The tidal volume was typically 1 ml/100 g of animal. During the last 30 seconds of benzene ventilation, 10 μg/kg adrenaline solution (in 0.9% NaCl) was injected into the right jugular vein. […] These arrhythmias could be elicited repeatedly. After three control VTs (at −30, −20 and −10 minutes), the test compounds were injected slowly during 30 seconds at a dose of 4 mg/kg i.v., immediately followed by a slow infusion of 12 mg/kg/h for 2 hours. The flow rate during the infusion period was 1 ml/h.
There were 5 rats per test compound and each animal served as its own control. The ability of the different drugs to suppress arrhythmias was tested against repeated benzene/adrenaline challenges at 5, 15, 30,45, 60, 90, 120 (end of drug infusion), 135, 150, 165 and 180 minutes after the i.v. bolus injection. The amplitudes of the systolic arterial pressure and diastolic arterial pressure […] with the help of a pressure-amplitude calibration curve. Heart rate, number of ventricular complexes during the occurrence of VTs and VPBs, and certain ECG parameters (PR, QRS, QT durations and RR cycle lengths in msec) were also recorded and measured manually. At each time-point, 3-5 cycles were measured and the average values were entered into EXCEL Windows 97. The average and standard deviation for the five experimental animals per compound were calculated.

[2] = Half-life in human plasma in vitro; assay type: in vitro ADME; settings: for half-life in human plasma: 37° C.
Procedure: Half-life in Human Plasma in Vitro.
Venous blood (60 ml) was collected in heparinized 1 5-ml Vacutainer® tubes from the forearm of five human volunteers. Each tube contained 1,000 units of heparin sodium salt. The blood was immediately centrifuged at 2,000 g for 10 minutes and the plasma was collected. Immediately after collection, the plasma was divided into 2-ml aliquots in borosilicate glass tubes (5-ml capacity) capped with a plastic stopper. The tubes were then equilibrated in a 37° C.-water bath for at least 15 minutes before the test samples were added.
Stock solutions were prepared by dissolving 25 μmoles (about 18 mg) of each of the test compounds in 10 ml of deionized water. To each of the glass tubes containing 2 ml of fresh plasma, equilibrated at 37° C., was added 40 μl of the stock solutions (one test compound per tube). The plasma/stock solutions were then mixed. Samples (250 μl) were collected at time 0 (immediately after mixing test compounds in plasma) and then at 30, 60, 90, 120, 180, 240, and 300 minutes. The test tubes were capped, to avoid concentration due to evaporation, and left in the 37° C. bath during the entire experiment. Each aliquot was immediately introduced into a 1.5-ml microfuge tube containing 20 μl of a 0.01% solution of diethyl paranitrophenylphosphate (paraoxon) in ethanol in order to inhibit esterase activity. The tubes were then capped and vortexed, then kept at −20° C. until analysis. The samples were thawed and mixed with 750 μl of a 0.1% solution of trifluoroacetic acid (TFA) in acetonitrile, vortexed for thorough mixing, and then centrifuged at 12,000 g for 15 minutes. The supernatant was collected for injection in the HPLC system.
The HPLC mobile phase consisted of acetonitrile and water containing 0.1% TFA and 400 mg/L benzyltriethylammoniumchloride (BTEAC) in the following proportions and flow rates: 85% acetonitrile and 15% water at 2.0 ml/min. The detection wavelength was set at 242 nm, and the injected volume was 100 μL. The HPLC peaks were recorded, and the integrated values were plotted against time using the SIGMAPLOT software version 4.0 for WINDOWS. The resulting curves were fitted to a first-order exponential decay equation from which hydrolysis half-lives were calculated.

[3] = benzene vapors and adrenaline challenge

Compound | protection against adrenaline-induced tachyarrhythmia / tachycardia (heart rate) ([1]; comparison of the forms) | metabolism in human plasma [2] | PR interval ([1]; anesthetized rats) | QRS interval ([1]; anesthetized rats) | QT interval ([1]; anesthetized rats) | Heart rate (beats/minute) ([1]; anesthetized rats) | Inhibition of tachycardia ([1]; anesthetized rats) | Number of VPB ([1]; anesthetized rats) | Inhibition of VPB ([1]; anesthetized rats) | VPB-inhibiting activity at the end of the washout period [1] | inhibition of the formation of ventricular premature beats (VPB) during drug administration [1, 3] | half-life in human plasma [2] [h] | effect on QT segment / interval of the EKG (Class-III properties), potency ([1]; anesthetized rats, comparison of the forms) | anti-arrhythmic activity (VPB inhibition) of the racemate relative to the enantiomers [1, 3]
CC[C@H](C)OC(=O)Cc1oc2ccccc2c1C(=O)c1cc(I)c(OCCN(CC)CC)c(I)c1 [ATI-2042] | very good protection | metabolized in human plasma by esterase enzymes |  |  |  |  |  |  |  |  |  |  |  | 
CCN(CC)CCOc1c(I)cc(C(=O)c2c(CC(=O)OC(C)C(C)C)oc3ccccc23)cc1I (stereo not shown) [ATI-2055] | inhibits the tachycardia | metabolized in human plasma by esterase enzymes |  |  |  |  |  |  |  |  |  |  |  | 
CC[C@@H](C)OC(=O)Cc1oc2ccccc2c1C(=O)c1cc(I)c(OCCN(CC)CC)c(I)c1 [Compound R-2042, (R)-sec-Butyl2-[3-(3,5-diiodo-4-(2-diethylaminoethyloxy)benzoyl)]benzofurane-acetate] |  |  | shorter | no change | no change | lower | longer | lower | longer | completely inactive |  |  |  | 
CCN(CC)CCOc1c(I)cc(C(=O)c2c(CC(=O)O[C@H](C)C(C)C)oc3ccccc23)cc1I [Compound R-2055, (R)-(3-Methyl)-2butyl 2-[3-(3,5-diiodo-4-(2-diethylaminoethyloxy)benzoyl)]benzo-furaneacetate] |  |  | shorter | longer | no change | lower | longer | lower | longer | still retained part of its activity | totally inhibited | 11.7 |  | 
CC[C@H](C)OC(=O)Cc1oc2ccccc2c1C(=O)c1cc(I)c(OCCN(CC)CC)c(I)c1 [Compound S-2042, (S)-sec-Butyl2-[3-(3,5-diiodo-4-(2-diethylaminoethyloxy)benzoyl)]benzofurane-acetate] |  |  | longer | longer | longer | lower | longer | lower | longer | still retained part of its activity | totally inhibited |  | most potent and the longest acting | 
CCN(CC)CCOc1c(I)cc(C(=O)c2c(CC(=O)O[C@@H](C)C(C)C)oc3ccccc23)cc1I [Compound S-2055, (S)-(3-Methyl)-2butyl 2-[3-(3,5-diiodod-4-(2-diethylaminoethyloxy)benzoyl)]benzo-furaneacetate] |  |  | shorter | longer | no change | lower | longer | lower | longer | completely inactive |  | 8.8 |  | 
CC[C@H](C)OC(=O)Cc1oc2ccccc2c1C(=O)c1cc(I)c(OCCN(CC)CC)c(I)c1 [R,S-2042] | least potent and shortest acting |  |  |  |  |  |  |  |  |  |  |  |  | even less active than either the R- or the S-isomer
